Dmax and DC50 data for 12 molecules are collected here from US20250114345A1, “COMPOUNDS AND COMPOSITIONS AS CBP/P300 DEGRADERS AND USES THEREOF” (Oncopia Therapeutics, Inc. d/b/a/ SK Life Science Labs, priority 2023, published 2025).

One test deals with T1, p300 (Homo sapiens, UniProt Q09472).
T1 construct: host or cells: A549 P300 HiBit cells
Briefly: P300 degradation, HiBit technology in A549 P300 HiBit cells (2 h). The note with it: 2 hrs post treatment; for Dmax: A549, A549 P300 HiBit cells; for DC50: A549 P300 HiBit cells. In kind it is cell-based. In short, it runs like this: (§1)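 Cells: A549 HiBiT-tagged lines, 0.2×10^4/well, F-12K + 10% HI-FBS, equilibrated overnight. Tx: serial dilution of cpd (10 mM DMSO stock). Readout: HiBiT lytic reagent, 10 min RT shaking, luminescence → potency, Dmax.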

For the next test, the target named is T2, CBP (Homo sapiens, UniProt Q92793).
T2 construct: host or cells: A549 CBP HiBit cells
T2 sequence (Q92793 whole entry): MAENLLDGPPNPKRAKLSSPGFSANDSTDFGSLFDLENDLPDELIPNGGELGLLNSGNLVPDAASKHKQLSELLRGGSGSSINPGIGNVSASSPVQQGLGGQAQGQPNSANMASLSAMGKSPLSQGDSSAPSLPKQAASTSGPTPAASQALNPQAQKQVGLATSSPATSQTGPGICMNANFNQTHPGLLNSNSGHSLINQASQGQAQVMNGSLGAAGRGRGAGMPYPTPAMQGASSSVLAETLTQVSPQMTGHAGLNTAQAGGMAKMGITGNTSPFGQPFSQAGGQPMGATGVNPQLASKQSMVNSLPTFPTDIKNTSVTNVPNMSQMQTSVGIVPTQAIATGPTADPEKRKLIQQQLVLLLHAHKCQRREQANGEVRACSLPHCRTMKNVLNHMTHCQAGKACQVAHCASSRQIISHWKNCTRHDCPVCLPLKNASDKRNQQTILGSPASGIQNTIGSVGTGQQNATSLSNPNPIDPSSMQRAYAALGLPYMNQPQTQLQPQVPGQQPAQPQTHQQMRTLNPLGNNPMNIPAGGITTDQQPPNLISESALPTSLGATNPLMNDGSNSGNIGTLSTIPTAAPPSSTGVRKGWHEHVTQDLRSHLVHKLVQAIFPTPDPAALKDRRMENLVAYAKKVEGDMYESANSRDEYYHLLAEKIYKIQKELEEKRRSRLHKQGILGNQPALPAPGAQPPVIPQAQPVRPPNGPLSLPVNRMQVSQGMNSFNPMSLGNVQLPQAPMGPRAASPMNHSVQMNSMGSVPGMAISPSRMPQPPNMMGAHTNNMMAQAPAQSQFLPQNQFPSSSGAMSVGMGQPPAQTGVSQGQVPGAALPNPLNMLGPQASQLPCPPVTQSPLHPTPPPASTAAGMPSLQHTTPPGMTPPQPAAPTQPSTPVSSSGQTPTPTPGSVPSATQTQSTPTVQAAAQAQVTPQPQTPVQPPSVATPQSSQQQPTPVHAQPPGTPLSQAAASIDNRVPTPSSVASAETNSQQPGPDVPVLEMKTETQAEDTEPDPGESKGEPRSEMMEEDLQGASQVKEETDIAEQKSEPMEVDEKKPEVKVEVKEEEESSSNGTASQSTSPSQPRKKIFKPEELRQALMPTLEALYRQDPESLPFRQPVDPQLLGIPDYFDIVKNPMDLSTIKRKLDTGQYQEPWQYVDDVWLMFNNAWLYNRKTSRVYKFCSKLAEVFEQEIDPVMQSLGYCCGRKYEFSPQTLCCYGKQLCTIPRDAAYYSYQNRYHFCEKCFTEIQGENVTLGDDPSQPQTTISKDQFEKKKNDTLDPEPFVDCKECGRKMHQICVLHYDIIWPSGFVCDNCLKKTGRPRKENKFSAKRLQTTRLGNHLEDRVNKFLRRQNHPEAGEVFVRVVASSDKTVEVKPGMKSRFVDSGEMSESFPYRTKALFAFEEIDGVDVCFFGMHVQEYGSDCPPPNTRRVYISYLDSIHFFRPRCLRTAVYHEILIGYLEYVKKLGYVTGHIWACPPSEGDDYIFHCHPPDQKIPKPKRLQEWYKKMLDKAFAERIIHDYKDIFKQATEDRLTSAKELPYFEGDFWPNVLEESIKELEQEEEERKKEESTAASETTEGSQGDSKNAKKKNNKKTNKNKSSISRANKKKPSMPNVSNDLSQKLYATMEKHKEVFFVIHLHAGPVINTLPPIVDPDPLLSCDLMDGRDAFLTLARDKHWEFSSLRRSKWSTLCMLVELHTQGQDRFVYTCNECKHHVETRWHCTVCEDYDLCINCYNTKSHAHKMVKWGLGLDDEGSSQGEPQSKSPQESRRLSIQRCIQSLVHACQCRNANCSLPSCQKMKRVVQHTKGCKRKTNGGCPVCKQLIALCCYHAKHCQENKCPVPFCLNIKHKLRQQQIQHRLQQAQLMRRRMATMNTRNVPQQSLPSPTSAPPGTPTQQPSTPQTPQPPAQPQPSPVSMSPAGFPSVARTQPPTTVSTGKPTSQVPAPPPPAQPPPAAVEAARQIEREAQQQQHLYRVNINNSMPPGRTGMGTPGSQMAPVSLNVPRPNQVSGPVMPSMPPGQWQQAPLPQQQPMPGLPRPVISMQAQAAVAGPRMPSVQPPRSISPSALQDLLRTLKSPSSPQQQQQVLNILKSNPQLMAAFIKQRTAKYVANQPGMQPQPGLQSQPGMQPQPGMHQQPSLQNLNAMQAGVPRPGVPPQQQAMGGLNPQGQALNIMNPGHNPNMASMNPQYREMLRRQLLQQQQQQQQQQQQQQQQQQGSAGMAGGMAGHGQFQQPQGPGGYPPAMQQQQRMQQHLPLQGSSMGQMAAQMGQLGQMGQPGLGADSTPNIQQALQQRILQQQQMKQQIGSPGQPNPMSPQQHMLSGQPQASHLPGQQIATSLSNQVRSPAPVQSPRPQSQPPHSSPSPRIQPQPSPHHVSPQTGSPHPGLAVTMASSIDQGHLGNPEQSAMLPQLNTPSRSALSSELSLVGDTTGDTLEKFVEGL
The test can be described thus: CBP degradation, HiBit technology in A549 CBP HiBit cells (24 h). Format: cell-based. The note with it: 24 hrs post treatment. The procedure, abridged:
as §1

The structures appear in SMILES notation. A value given as a limit tells only on which side of the number the result lay.

T1 sequence (Q09472 whole entry): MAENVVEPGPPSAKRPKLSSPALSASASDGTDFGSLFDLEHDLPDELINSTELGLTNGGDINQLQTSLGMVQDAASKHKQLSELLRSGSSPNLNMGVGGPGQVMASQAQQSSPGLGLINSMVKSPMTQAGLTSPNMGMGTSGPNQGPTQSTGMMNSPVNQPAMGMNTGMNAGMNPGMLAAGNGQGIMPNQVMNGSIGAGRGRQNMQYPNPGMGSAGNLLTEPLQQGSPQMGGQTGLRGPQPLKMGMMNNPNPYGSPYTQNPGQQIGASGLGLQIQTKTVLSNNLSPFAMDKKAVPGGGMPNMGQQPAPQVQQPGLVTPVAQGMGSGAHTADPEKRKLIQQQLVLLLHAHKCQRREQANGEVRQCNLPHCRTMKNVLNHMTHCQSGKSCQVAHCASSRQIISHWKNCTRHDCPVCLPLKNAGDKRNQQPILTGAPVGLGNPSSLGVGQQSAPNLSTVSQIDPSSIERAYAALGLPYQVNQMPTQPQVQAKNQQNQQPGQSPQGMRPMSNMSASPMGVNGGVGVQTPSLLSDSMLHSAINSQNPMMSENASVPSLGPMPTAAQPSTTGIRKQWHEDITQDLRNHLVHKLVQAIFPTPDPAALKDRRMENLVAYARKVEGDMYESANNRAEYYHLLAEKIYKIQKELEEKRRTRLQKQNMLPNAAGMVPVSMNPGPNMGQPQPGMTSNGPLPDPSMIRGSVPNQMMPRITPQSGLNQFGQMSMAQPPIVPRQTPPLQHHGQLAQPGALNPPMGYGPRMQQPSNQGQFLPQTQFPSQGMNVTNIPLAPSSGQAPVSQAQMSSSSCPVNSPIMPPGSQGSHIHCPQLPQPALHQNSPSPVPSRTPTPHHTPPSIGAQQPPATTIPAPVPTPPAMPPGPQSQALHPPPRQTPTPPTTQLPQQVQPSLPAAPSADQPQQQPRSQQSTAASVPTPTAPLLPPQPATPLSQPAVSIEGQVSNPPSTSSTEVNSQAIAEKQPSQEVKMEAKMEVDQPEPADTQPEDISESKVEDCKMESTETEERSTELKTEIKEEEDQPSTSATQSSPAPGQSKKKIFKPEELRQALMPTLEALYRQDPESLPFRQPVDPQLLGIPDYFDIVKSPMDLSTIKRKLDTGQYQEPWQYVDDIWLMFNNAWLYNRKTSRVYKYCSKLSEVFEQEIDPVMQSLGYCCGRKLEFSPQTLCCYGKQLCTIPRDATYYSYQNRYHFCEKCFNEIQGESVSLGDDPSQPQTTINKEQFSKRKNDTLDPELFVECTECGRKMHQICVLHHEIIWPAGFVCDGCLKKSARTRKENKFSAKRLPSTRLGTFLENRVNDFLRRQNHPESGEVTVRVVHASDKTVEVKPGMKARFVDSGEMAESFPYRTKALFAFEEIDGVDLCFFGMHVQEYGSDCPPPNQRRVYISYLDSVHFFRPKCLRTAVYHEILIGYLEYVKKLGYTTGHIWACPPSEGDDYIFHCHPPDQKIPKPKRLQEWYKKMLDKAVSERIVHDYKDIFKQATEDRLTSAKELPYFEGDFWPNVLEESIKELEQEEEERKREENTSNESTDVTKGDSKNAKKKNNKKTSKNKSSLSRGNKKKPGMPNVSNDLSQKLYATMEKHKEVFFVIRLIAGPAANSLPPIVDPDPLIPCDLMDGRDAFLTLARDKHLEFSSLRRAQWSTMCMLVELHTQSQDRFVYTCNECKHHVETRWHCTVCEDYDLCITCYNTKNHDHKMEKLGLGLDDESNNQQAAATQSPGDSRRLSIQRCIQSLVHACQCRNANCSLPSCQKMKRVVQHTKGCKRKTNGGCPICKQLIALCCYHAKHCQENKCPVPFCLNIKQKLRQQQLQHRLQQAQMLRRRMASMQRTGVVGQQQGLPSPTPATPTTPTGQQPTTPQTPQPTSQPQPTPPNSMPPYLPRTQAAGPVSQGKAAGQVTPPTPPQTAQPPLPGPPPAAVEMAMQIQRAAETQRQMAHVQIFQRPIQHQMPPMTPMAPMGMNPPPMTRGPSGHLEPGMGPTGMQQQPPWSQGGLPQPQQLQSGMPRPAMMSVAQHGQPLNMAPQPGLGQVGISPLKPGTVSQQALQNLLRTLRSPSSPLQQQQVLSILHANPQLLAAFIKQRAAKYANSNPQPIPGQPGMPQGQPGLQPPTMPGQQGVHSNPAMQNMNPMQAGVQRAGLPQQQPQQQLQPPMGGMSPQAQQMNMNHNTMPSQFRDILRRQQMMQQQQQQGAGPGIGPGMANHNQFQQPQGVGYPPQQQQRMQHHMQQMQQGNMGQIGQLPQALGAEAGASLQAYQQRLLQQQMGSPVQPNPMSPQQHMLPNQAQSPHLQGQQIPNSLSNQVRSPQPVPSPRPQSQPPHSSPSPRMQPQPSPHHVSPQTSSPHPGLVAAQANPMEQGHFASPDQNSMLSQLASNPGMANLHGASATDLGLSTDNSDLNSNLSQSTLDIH

For `Cc1cc(-c2ncc3c(n2)OCCN3c2ccc3c(c2)n(C)c(=O)n3C)cnc1C(=O)NCC#Cc1cc2ccnc(C3CCC(=O)NC3=O)c2o1` (stereo not drawn) [Example A251, 5-(5-(1,3-dimethyl-2-oxo-2,3-dihydro-1H-benzo[d]imidazol-5-yl)-6,7-dihydro-5H-pyrimido[4,5-b][1,4]oxazin-2-yl)-N-(3-(7-(2,6-dioxopiperidin-3-yl)furo[2,3-c]pyridin-2-yl)prop-2-yn-1-yl)-3-methylpicolinamide], the greatest degradation seen (Dmax) on p300 was 60 to 79%; on CBP it was under 20%. For the same molecule, the DC50 was 10 to 99 nM at p300 and over 1000 nM at CBP.
In the same order, the values of `CC(C)c1cc(-c2cccc3cc(-c4ccc(C(=O)NCC#Cc5cc(F)c6occ(C7CCC(=O)NC7=O)c6c5)nc4)ncc23)cc2c1n(C)c(=O)n2C` (stereo not drawn) [Example A254, N-(3-(3-(2,6-dioxo-piperidin-3-yl)-7-fluorobenzofuran-5-yl)prop-2-yn-1-yl)-5-(8-(7-isopropyl-1,3-dimethyl-2-oxo-2,3-dihydro-1H-benzo [d]imidazol-5-yl)isoquinolin-3-yl)picolinamide] are over 80%, under 20%, 1 to 9.9 nM and over 1000 nM.
On the same counts, the results for `Cn1c(=O)n(C)c2cc(-c3cccc4cc(-c5ccc(C(=O)NCC#Cc6ccc7cnn(C8CCC(=O)NC8=O)c7c6)nc5)ncc34)ccc21` (stereo not drawn) [Example A255, 5-(8-(1,3-dimethyl-2-oxo-2,3-dihydro-1H-benzo[d]imidazol-5-yl)isoquinolin-3-yl)-N-(3-(1-(2,6-dioxo-piperidin-3-yl)-1H-indazol-6-yl)prop-2-yn-1-yl)picolinamide] are over 80%, under 20%, 1 to 9.9 nM and over 1000 nM.
As for `Cn1c(=O)n(C)c2c(N3CCC(C)(O)CC3)nc(-c3cccc4cc(-c5ccc(C(=O)NCC#Cc6cc7c(C8CCC(=O)NC8=O)cccc7o6)nc5)ncc34)cc21` (stereo not drawn) [Example A258, N-(3-(4-(2,6-dioxo-piperidin-3-yl)benzofuran-2-yl)prop-2-yn-1-yl)-5-(8-(4-(4-hydroxy-4-methylpiperidin-1-yl)-1,3-dimethyl-2-oxo-2,3-dihydro-1H-imidazo[4,5-c]pyridin-6-yl)isoquinolin-3-yl)picolinamide], the greatest degradation seen (Dmax) is over 80% on p300 and under 20% at CBP. Moreover, the half-maximal degradation concentration (DC50) on p300 is under 1 nM; on CBP, over 1000 nM.
On the same counts, the results for `Cn1c(=O)n(C)c2cc(C3=CC(C)(C)Oc4cc(-c5ccc(C(=O)NCC#Cc6cc7c(C8CCC(=O)NC8=O)cccc7o6)nc5)ncc43)ccc21` (stereo not drawn) [Example A259, 5-(4-(1,3-dimethyl-2-oxo-2,3-dihydro-1H-benzo[d]imidazol-5-yl)-2,2-dimethyl-2H-pyrano[3,2-c]pyridin-7-yl)-N-(3-(4-(2,6-dioxopiperidin-3-yl)benzofuran-2-yl)prop-2-yn-1-yl)picolinamide] are over 80%, under 20%, 1 to 9.9 nM and over 1000 nM.
In the same order, the values of `CCn1c(=O)n(C)c2c(N3CCOCC3)nc(-c3cccc4cc(-c5ccc(C(=O)NCC#Cc6cc7c(C8CCC(=O)NC8=O)cccc7o6)nc5)ncc34)cc21` (stereo not drawn) [Example A260, N-(3-(4-(2,6-dioxo-piperidin-3-yl)benzofuran-2-yl)prop-2-yn-1-yl)-5-(8-(1-ethyl-3-methyl-4-morpholino-2-oxo-2,3-dihydro-1H-imidazo[4,5-c]pyridin-6-yl)isoquinolin-3-yl)picolinamide] are over 80%, under 20%, under 1 nM and over 1000 nM.
On the same counts, the results for `Cn1c(=O)n(C)c2c(C3CC3)cc(-c3cccc4cc(-c5ccc(C(=O)NCC#Cc6cc7c(C8CCC(=O)NC8=O)cccc7o6)nc5)ncc34)cc21` (stereo not drawn) [Example A261, 5-(8-(7-cyclopropyl-1,3-dimethyl-2-oxo-2,3-dihydro-1H-benzo[d]imidazol-5-yl)isoquinolin-3-yl)-N-(3-(4-(2,6-dioxopiperidin-3-yl)benzofuran-2-yl)prop-2-yn-1-yl)picolinamide] are over 80%, under 20%, 1 to 9.9 nM and over 1000 nM.
At p300, `Cn1c(=O)n(C)c2cc(C3=CC(C)(C)Oc4cc(-c5ccc(C(=O)NCC#Cc6ccc7occ(C8CCC(=O)NC8=O)c7c6)nc5)ncc43)ccc21` (stereo not drawn) [Example A263, 5-(4-(1,3-dimethyl-2-oxo-2,3-dihydro-1H-benzo[d]imidazol-5-yl)-2,2-dimethyl-2H-pyrano[3,2-c]pyridin-7-yl)-N-(3-(3-(2,6-dioxopiperidin-3-yl)benzofuran-5-yl)prop-2-yn-1-yl)picolinamide] showed a maximal degradation (Dmax) of over 80% and a 50% degradation concentration (DC50) of 1 to 9.9 nM. On CBP, the half-maximal degradation concentration (DC50) is over 1000 nM and the Dmax is under 20%.
Turning to `Cc1cc(-c2cc3cccc(-c4cc(C(C)C)c5c(c4)n(C)c(=O)n5C)c3cn2)cnc1C(=O)NCC#Cc1ccc2c(c1)c(C1CCC(=O)NC1=O)nn2C` (stereo not drawn) [Example A269, N-(3-(3-(2,6-dioxopiperidin-3-yl)-1-methyl-1H-indazol-5-yl)prop-2-yn-1-yl)-5-(8-(7-isopropyl-1,3-dimethyl-2-oxo-2,3-dihydro-1H-benzo[d]imidazol-5-yl)iso-quinolin-3-yl)-3-methylpicolinamide], the maximal degradation (Dmax) on p300 and on CBP was over 80% in each case. The half-maximal degradation concentration (DC50) was 1 to 9.9 nM at p300 and 10 to 99 nM at CBP.
On p300, `CC(C)c1cc(N2CCN(C)c3cc(-c4ccc(C(=O)NCC#Cc5cccc(NC6CCC(=O)NC6=O)c5)nc4)ncc32)cc2c1n(C)c(=O)n2C` (stereo not drawn) [Example A270, N-(3-(3-((2,6-dioxopiperidin-3-yl)amino)phenyl)prop-2-yn-1-yl)-5-(4-(7-isopropyl-1,3-dimethyl-2-oxo-2,3-dihydro-1H-benzo[d]imidazol-5-yl)-1-methyl-1,2,3,4-tetrahydro-pyrido[3,4-b]pyrazin-7-yl)picolinamide] registered a Dmax of over 80% and a DC50 of under 1 nM. For the same molecule, at CBP, the half-maximal degradation concentration (DC50) was in the range of 1 to 9.9 nM and the maximal degradation (Dmax) lay in the range of 60 to 79%.
Take `Cn1c(=O)n(C)c2c(N3CCC(C)(O)CC3)cc(-c3cccc4cc(-c5ccc(C(=O)NCC#Cc6cccc(NC7CCC(=O)NC7=O)c6)nc5)ncc34)cc21` (stereo not drawn) [Example A271, N-(3-(3-((2,6-dioxopiperidin-3-yl)amino)phenyl)prop-2-yn-1-yl)-5-(8-(7-(4-hydroxy-4-methylpiperidin-1-yl)-1,3-dimethyl-2-oxo-2,3-dihydro-1H-benzo[d]imidazol-5-yl)isoquinolin-3-yl)picolinamide]: the Dmax was over 80% on p300 and 60 to 79% on CBP. Further, the DC50 on p300 was under 1 nM; on CBP, 1 to 9.9 nM.
In the same order, the values of `CCc1cc(-c2cccc3cc(-c4ccc(C(=O)NCC#Cc5ccc6ncn(C7CCC(=O)NC7=O)c6c5)nc4)ncc23)c2cc(C)c(=O)n(C)c2c1` (stereo not drawn) [Example B2, N-(3-(1-(2,6-Dioxopiperidin-3-yl)-1H-benzo[d]imidazol-6-yl)prop-2-yn-1-yl)-5-(8-(7-ethyl-1,3-dimethyl-2-oxo-1,2-dihydroquinolin-5-yl)isoquinolin-3-yl)picolinamide] are 60 to 79%, under 20%, 1 to 9.9 nM and over 1000 nM.
